In assay [1] the target is Thyrotropin-releasing hormone receptor 2 (TRHR-2), rat, expressed in HEK293s cells from pCDNA3-TRHR2 (rat). The experiment in a line: radioligand binding on whole cells, 293S/TRH-R clonal cell line.
For assay [2], the target named is TRH receptor of GH4C1 cells (TRHR-1) (UniProt Q01717). Put plainly: radioligand binding on whole GH4C1 cells.
The target of assay [3] is Thyrotropin-releasing hormone receptor 2 (TRHR-2), rat, expressed in HEK293s cells from pCDNA3-TRHR2 (rat). Put plainly: saturation radioligand binding on whole HEK 293 cells expressing TRHR-2.
The target in assay [4] is T1, TRH receptor (TRHR-1) of GH4C1 cells (Rattus norvegicus, UniProt Q01717).
T1 construct: endogenous in cells; host or cells: GH4C1
T1 sequence (Q01717 1-412): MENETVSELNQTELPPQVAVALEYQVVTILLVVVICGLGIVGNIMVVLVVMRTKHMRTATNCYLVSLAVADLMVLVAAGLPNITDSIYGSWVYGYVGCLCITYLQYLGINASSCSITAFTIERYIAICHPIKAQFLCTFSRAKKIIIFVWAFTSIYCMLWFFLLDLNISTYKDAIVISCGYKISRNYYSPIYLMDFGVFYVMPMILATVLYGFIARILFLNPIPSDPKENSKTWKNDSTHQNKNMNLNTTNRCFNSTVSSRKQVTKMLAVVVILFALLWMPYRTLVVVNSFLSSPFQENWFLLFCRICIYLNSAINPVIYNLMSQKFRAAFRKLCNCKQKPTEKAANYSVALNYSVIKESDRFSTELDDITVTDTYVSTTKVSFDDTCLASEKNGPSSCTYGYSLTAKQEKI
The experiment in a line: 3H-TRH radioligand binding on GH4C1 cells.

The target of assay [5] is T2, TRHR-2 (Rattus norvegicus, UniProt A6IZR3).
T2 construct: expressed in transfected cells; host or cells: HEK293s
T2 sequence (A6IZR3 1-352): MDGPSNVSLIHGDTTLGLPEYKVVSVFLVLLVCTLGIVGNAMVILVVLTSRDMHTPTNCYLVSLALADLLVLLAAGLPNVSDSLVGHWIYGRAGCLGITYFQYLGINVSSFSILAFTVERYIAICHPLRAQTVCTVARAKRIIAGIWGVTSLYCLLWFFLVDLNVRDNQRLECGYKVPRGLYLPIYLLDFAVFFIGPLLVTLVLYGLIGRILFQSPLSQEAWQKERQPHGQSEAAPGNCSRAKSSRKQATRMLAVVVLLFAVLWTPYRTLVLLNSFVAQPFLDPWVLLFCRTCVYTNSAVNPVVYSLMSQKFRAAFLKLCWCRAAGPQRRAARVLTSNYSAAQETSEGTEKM
Put plainly: 3H-TRH radioligand binding on whole HEK293s cells stably expressing TRHR-2. As to the method:
(§1) The TRH binding assay was performed on whole cells. Transfected cells were washed twice with HBSS (Gibco BRL, cat# 14065) supplemented with 0.05% bovine serum albumin, detached by gentle pipetting and aliquoted in eppendorf tubes for binding assays. One twentieth of the cells collected from a confluent 75 cm^2 flask was used per assay point. The binding reaction was performed in a total volume of […] of binding buffer (HBSS+0.05% bovine serum albumin) containing the transfected cells and 10 nM of^3H-thyrotropin releasing hormone (Peninsula Laboratories Inc, cat # 7501) with or without unlabelled competitors. Non-specific binding was estimated in the presence of 1 mM of unlabelled TRH. Reactions were carried out for 60 min at room temperature and reactions were stopped by filtration through Unifilters-96 GF/B filters (Canberra Packard cat # 6005177) using the 96-well Filtermat 196 filtration system from Canberra Packard. The filters were washed 3 times with 1 ml of washing buffer (50 mM Tris(HCl), 3 mM MgCl2, pH 7.0). They were then dried at 55° C. for one hour and 50 μl of mScint-20 (Canberra Packard) was added per well. Filters were counted with the Topcount microplate counter from Canberra Packard.
HEK293s cells in a 10 cm petri dish were transfected with […] pCDNA3-TRHR2. After 14 days of selection in culture medium containing 600 μg/ml G418, resistant colonies were pooled. Then, single clones were purified by 2 rounds of limited dilution in 96 well plates. Clones of HEK293s cells expressing different levels of TRHR-2 receptor were selected using a 3H-TRH binding assay.

For assay [6], the target named is T2, TRHR-2. Put plainly: Intracellular calcium mobilization (Fura 2) in HEK293/TRHR-2 cells. The assay is classed as cell-based. As to the method: Intracellular calcium concentration changes where determined by fluorescence measurement of the intracellular, calcium-sensitive indicator Fura 2. Briefly, HEK293s cells were grown on glass cover slips in culture medium at 37° C., 5% CO2 and diluted 10 fold every 3 days. The cells were loaded at room temperature for 30 min using […] of is Fura 2/AM in simplified Grace's solution (SGS buffer) physiological buffer (NBS: 135 mM NaCl, 5 mM KCl, 1.8 mM CaCl2, 1.2 mM MgSO4, 10 mM HEPES, pH 7.4). Fura 2/AM is a membrane permeant, calcium-insensitive ester of Fura 2. After three washes in Fura-2 /AM-free buffer, the cells were incubated for 15 to 30 min in SGNBS at room temperature to insure full hydrolysis of the Fura 2 ester. The calcium-sensitive, hydrolyzed form of Fura 2 remains trapped intracellularly. Experiments were conducted at room temperature on single cells or small groups of 3 to 7 cells in a coverslip holder fitted to the stage of an IMT-2 inverted microscope equipped with a 40×-epifluorescence objective (UVFL40, 0.85, Olympus Optical Co, Tokyo) and coupled to a PTI ratio fluorescence system (Photon Technology International, London, Ontario, Canada). Sample illumination was provided by a 75 W xenon light source attached to a filter-based light chopper unit which provided 340 and 380 nm excitation wavelength alternating at a frequency of 5 Hz. The emitted light was passed through an adjustable rectangular aperture followed by a 505 nm interference filter (10-nm bandwidth), and its intensity was recorded by a photon counter detector. Dye leakage, as determined by loss of fluorescence over a period of 30 min, was undetectable at both excitation wavelengths.
The ratio of the fluorescence intensity at the two excitation wavelengths can be converted into an estimate of ionized intracellular calcium concentration by use of the formula: [Ca^2+]i=Kd×(Fmin/Fmax)×(R-Rmin)/(Rmax-R), where R, Rmin, and Rmax are the fluorescence ratios recorded during the experiment (R) and during calibration tests on unlysed cells using […] ionomycin in SGNBS (Rmax), followed by 10 mM EGTA addition at pH 8.2 (Rmin). Fmin and Fmax are the corresponding fluorescence intensities for the 380 nm excitation and Kd is the Fura-2 dissociation constant at room temperature (135 nM).
Small volumes (10-50 μl) of drugs (hormones, agonists, neurotransmitters, TRH, bradykinin) from prediluted stock solutions prepared in the appropriate buffer solutions were directly added to the experimental chamber.

The conditions of assay [7]: I.C.V. injection, on a molar basis (Boschi et al. 1983); cited from earlier work.
Assay [8] concerns the target Thyrotropin-releasing hormone receptor 2 (TRHR-2), rat, expressed in HEK293s cells from pCDNA3-TRHR2 (rat). Put plainly: competition with 3H-TRH tracer on whole cells, 293S/TRH-R clonal cell line.
In assay [9] the target is T3, Thyrotropin-releasing hormone receptor 2 (TRHR-2), rat, expressed in HEK293s cells from pCDNA3-TRHR2 (rat).
T3 construct: 352 amino acid open reading frame cloned from a rat brain stem-spinal cord cDNA library; also called TRH receptor 2; 293S/TRH-R clonal cell line
T3 chain: T2 sequence (A6IZR3 1-352) with I143M
The description is as above. As to the method:
as §1, with “cm²” for “cm^2”, “of ³H-thyrotropin” for “of^3H-thyrotropin”, “MgCl_2,” for “MgCl2,”, “µl” for “μl”
(§2) A binding reaction was performed using HEK 293 cells expressing TRHR-2. […] Various TRH-related peptides were used in competition experiments.

Assay [10] addresses T3, Thyrotropin-releasing hormone receptor …. The experiment in a line: 3H-TRH competition on cells expressing TRHR-2 (assay not restated in the sentence). The method, then:
as §1, with “cm²” for “cm^2”, “of ³H-thyrotropin” for “of^3H-thyrotropin”, “MgCl_2,” for “MgCl2,”, “µl” for “μl”
as §2

[11] abbreviates: GH4C1 cells, three independent experiments.
The mark [12] stands for this setting: 293S/TRH-R clonal cell line, three independent experiments, read-out: IC50.
Setting [13] is: HEK 293 cells expressing TRHR-2, read-out: IC50 in competition with 3H-TRH as tracer.
Setting [14] is: nanomolar concentrations of TRH.

Numbering of substitutions follows the chain as printed. Read-outs that look alike come from different tables or passages of the source. Where a SMILES comes first, the peptide text is derived from it. Where no end group is shown, it is not given here. [ ]: non-standard residue; d: D form. pGlu = O=C1CC[C@@H](C(=O)O)N1 Some results are limits rather than exact numbers.

What is called Kd is the equilibrium constant for the complex coming apart. For orientation: IC50 means the concentration at which inhibition is half-maximal. The term Ki denotes a measure of affinity in units of concentration, obtained from inhibition or displacement.

Take “3H-thyrotropin releasing hormone (tritium-labelled TRH, Peninsula Laboratories) (peptide)”: the BMAX amounted to 535 fmol/mg in assay [1] and 577 fmol/mg in [2]. Besides, the Kd in assay [1] was 6.17 nM; in assay [2], 5.32 nM; in [3], 2.5 nM. This molecule also came in with a Bmax (fmol/mg proteins) in [3] of 430.
Regarding `O=C(O)CNC(=O)[C@@H]1CCCN1C(=O)[C@H](Cc1c[nH]cn1)NC(=O)[C@@H]1CCC(=O)N1` [pGlu-His-Pro-Gly] ([pGlu]HPG-OH; C-terminus assumed), the “binding to GH4C1 cells” value in assay [4] is given as “does not show any binding”. The IC50 in assay [4] (setting [11]) was > 10000 nM; on TRHR-2 [5] (setting [12]) it was 641 ± 75.2 nM; on TRHR-2 [5] (setting [13]) it was 640 nM. Also, on TRHR-2 [5] (read-out: Ki value to the TRHR-2 receptor), the Ki amounted to 640 nM.
With `Cn1cnc(C[C@H](NC(=O)[C@@H]2CCC(=O)N2)C(=O)N2CCC[C@H]2C(N)=O)c1` [pGlu-3-methyl-His-Pro-amide], the IC50 in assay [4] (setting [11]) worked out at 0.43 ± 0.27 nM; at TRHR-2 [5] (setting [13]), 2.2 nM.
On to `NC(=O)[C@@H]1CCCN1C(=O)[C@H](Cc1cnc[nH]1)NC(=O)[C@@H]1CCC(=O)N1` [TRH, pyroglutamic acid-histidine-proline-amide], for which the “need of extracellular calcium for the transient rise in [Ca++]i” value on TRHR-2 [6] is on record as “did not require the presence of extracellular calcium”. Further, at TRHR-2 [6] (setting [14]), the “change of intracellular calcium concentration” value is given as “marked transient increase in the intracellular calcium concentration”, the “time to peak of [Ca++]i” value is reported as “about 1 second” and the “time until baseline [Ca++]i was attained” value is “about 1 minute”. The “analgesia relative to morphine” value in assay [7] was “twice as great”. In assay [4] (setting [11]), the IC50 was determined as 5.33 ± 2.81 nM. Moreover, the IC50 at TRHR-2 [5] (setting [12]) came out at 8.39 ± 2.31 nM. Also, the IC50 on TRHR-2 [5] (setting [13]) amounted to 8.3 nM.
The molecule pGlu-3-methyl-His-Pro-amide (peptide) registered an IC50 in assay [8] of 2.2 nM.
Take “^3H-thyrotropin releasing hormone [^3H-TRH]”: the Kd in [4] (setting [11]) is 5.32 ± 1.63 nM; on TRHR-2 [5] (293S/TRH-R clonal cell line, three independent experiments, read-out: Kd), 6.17 ± 1.51 nM; at TRHR-2 [5] (HEK 293 cells expressing TRHR-2, saturation binding, read-out: estimated Kd for 3H-TRH) it was 2.5 nM.
Regarding `NC(=O)[C@@H]1CCCN1C(=O)[C@H](CCC(=O)O)NC(=O)[C@@H]1CCC(=O)N1` [pGlu-Glu-Pro-amide] ([pGlu]-Glu-Pro-NH2), the IC50 (in assay [4] (setting [11]); at TRHR-2 [5] (setting [12]); at TRHR-2 [5] (setting [13])) was > 10000 nM throughout.
In [8], “Thyrotropin-releasing hormone (TRH), pGlu-His-Pro-amide, unlabelled (peptide)” yielded an IC50 of 8.39 nM.

B1: pGlu-His-Pro-Gly (peptide)
peptide: [pGlu]HPG
notes: TRH-related peptide with a modified C-terminus
Take B1: the IC50 in assay [9] was 641 nM. The molecule also yielded a Ki in assay [10] of 640 nM.

The values above are taken from patent US6441133B1, “Thyrotropin-releasing hormone receptor 2(TRHR-2)” (AstraZeneca Canada Inc., priority 1996, dated 2002).
